According to publication PMC9775433 (Cancers, 2022):
“And” between values parts separate entries of the source, which are not always exact repeats. Equal values may be shown once.

How the values were obtained:
Format in all cases: in vivo, human
Conditions in all cases: individual patient
[1] = Tumor drug concentration in tumor needle biopsy at day 17 (LC-MS-MS)
Protocol: (§1) All tissue samples were immediately snap frozen (within 1 min) in liquid nitrogen and cryopreserved at −80 °C until the day of analysis.
(§2) Tissue biopsies were weighed accurately before analysis. Tissue homogenate was prepared by using a mechanical homogenizer. The tumor tissue was homogenized with the precellys lysing kit (bertin instruments®) in the Roche MagNA lyzer®. […] Tissue homogenate samples were directly analyzed.
(§3) Supplementary data S2 – Methods (Details)
(§4) samples; using a validated liquid chromatography–tandem mass spectrometry (LC-MS-MS).
(§5) The system consisted of an Acquity H‐Class UPLC system, coupled to a Xevo TQ‐S micro
(§6) tandem mass spectrometer. […]

[2] = Skin drug concentration in skin biopsy at day 17 (LC-MS-MS)
Protocol: as §1, §2, §3, §4, §5, §6

[3] = Plasma pharmacokinetics of high-dose intermittent sunitinib (LC-MS-MS, NONMEM)
Protocol: Study pharmacokinetic assessment in plasma: Ethylenediaminetetraacetic acid (EDTA) blood was collected pretreatment and subsequently at multiple time points in all patients (0, 2, 4, 6, 8, 10, and 24 h post-dose on day 1 for both time schedules and thereafter at days 3, 8, 10, 15, 17, and 22 for the once weekly schedule and at days 3, 15, 17, and 29 for the once every 2 weeks schedule). All samples were centrifuged within 1 h after collection at 2000 g for 10 min (at 4 degrees Celsius (°C)), plasma was separated and stored at −80 °C until the day of analysis.
Since there is no evidence for the exact relationship between plasma and tumor concentrations, we chose to use the concentration–time data calculated by NONMEM for Cmax, the average concentration over time (Caverage) and the trough concentrations just before the next dose was administered (Ctrough) based on rich PK-data of each individual patient. […] Inter-occasion variability in bioavailability and absorption duration were allowed in the model. The control stream of the final model and the goodness-of-fit plots are supplied in the Supplementary Material (Supplementary Data S3). The developed model was used to derive the individual predictions for the Cmax, Caverage, and Ctrough. SUM concentrations were calculated.
as §3, §4, §5, §6

SMILES: CCNCCNC(=O)c1c(C)[nH]c(/C=C2\C(=O)Nc3ccc(F)cc32)c1C [N-desethyl sunitinib]
- Tumor - N-desethyl Sunitinib concentration ([1]; sunitinib 300 mg O1W): 589 µg/L and 12025 µg/L and 812 µg/L and 1101 µg/L and 1077 µg/L and 2934 µg/L and 6513 µg/L and 22945 µg/L and 578 µg/L and 10356 µg/L and 342 µg/L and 767 µg/L
- Tumor - N-desethyl Sunitinib concentration ([1]; sunitinib 400 mg O2W): 400 µg/L
- Tumor - N-desethyl Sunitinib concentration ([1]; sunitinib 700 mg O2W): 13436 µg/L and 2500 µg/L and 19730 µg/L and 2387 µg/L and 4534 µg/L and 1675 µg/L and 17843 µg/L and 555 µg/L
- Tumor - N-desethyl Sunitinib concentration ([1]; sunitinib 800 mg O2W): 330 µg/L
- Skin - N-desethyl Sunitinib concentration ([2]; sunitinib 300 mg O1W): 1288 µg/L and 1388 µg/L and 267 µg/L and 1355 µg/L and 529 µg/L and 224 µg/L and 648 µg/L and 865 µg/L and 1498 µg/L and 621 µg/L and 1842 µg/L and 2193 µg/L and 488 µg/L
- Skin - N-desethyl Sunitinib concentration ([2]; sunitinib 300 mg O2W): 124 µg/L and 218 µg/L
- Skin - N-desethyl Sunitinib concentration ([2]; sunitinib 400 mg O1W): 406 µg/L
- Skin - N-desethyl Sunitinib concentration ([2]; sunitinib 700 mg O2W): 2743 µg/L and 221 µg/L and 168 µg/L and 987 µg/L and 5179 µg/L and 572 µg/L and 425 µg/L and 429 µg/L and 380 µg/L and 326 µg/L and 5652 µg/L and 1279 µg/L and 460 µg/L and 1021 µg/L and 1060 µg/L and 896 µg/L
- Skin - N-desethyl Sunitinib concentration ([2]; sunitinib 800 mg O2W): 194 µg/L
- Cmax plasma - N-desethyl Sunitinib concentration ([3]; sunitinib 200 mg O1W): 68 ng/mL and 40 ng/mL and 58 ng/mL
- Cmax plasma - N-desethyl Sunitinib concentration ([3]; sunitinib 300 mg O1W): 29 ng/mL and 34 ng/mL and 28 ng/mL and 22 ng/mL and 51 ng/mL and 15 ng/mL and 94 ng/mL and 32 ng/mL and 21 ng/mL and 31 ng/mL and 33 ng/mL and 23 ng/mL and 27 ng/mL and 43 ng/mL and 210 ng/mL and 63 ng/mL and 14 ng/mL
- Cmax plasma - N-desethyl Sunitinib concentration ([3]; sunitinib 300 mg O2W): 29 ng/mL and 7.49 ng/mL and 27 ng/mL
- Cmax plasma - N-desethyl Sunitinib concentration ([3]; sunitinib 400 mg O1W): 15 ng/mL and 26 ng/mL and 9.48 ng/mL and 22 ng/mL and 28 ng/mL and 25 ng/mL and 6.66 ng/mL and 44 ng/mL and 154 ng/mL and 57 ng/mL
- Cmax plasma - N-desethyl Sunitinib concentration ([3]; sunitinib 400 mg O2W): 33 ng/mL and 31 ng/mL and 28 ng/mL and 34 ng/mL
- Cmax plasma - N-desethyl Sunitinib concentration ([3]; sunitinib 500 mg O2W): 32 ng/mL and 29 ng/mL and 51 ng/mL
- Cmax plasma - N-desethyl Sunitinib concentration ([3]; sunitinib 600 mg O2W): 45 ng/mL and 41 ng/mL
- Cmax plasma - N-desethyl Sunitinib concentration ([3]; sunitinib 700 mg O2W): 26 ng/mL and 52 ng/mL and 24 ng/mL and 65 ng/mL and 55 ng/mL and 51 ng/mL and 21 ng/mL and 30 ng/mL and 40 ng/mL and 59 ng/mL and 35 ng/mL and 48 ng/mL and 36 ng/mL and 34 ng/mL and 23 ng/mL and 84 ng/mL and 164 ng/mL and 150 ng/mL and 85 ng/mL and 68 ng/mL and 54 ng/mL and 76 ng/mL and 125 ng/mL and 128 ng/mL and 200 ng/mL and 57 ng/mL
- Cmax plasma - N-desethyl Sunitinib concentration ([3]; sunitinib 800 mg O2W): 55 ng/mL and 84 ng/mL and 13 ng/mL and 14 ng/mL and 29 ng/mL
